Results as given in patent publication US20180193493A1, “RENAL IMAGING AGENT” (NIHON MEDI-PHYSICS CO., LTD., priority 2014, published 2018).

What was measured:
[1] = test system: CKD model animals (adriamycin-treated Lewis rats), kidneys excluding the renal pelvis; assay: PET imaging (static, SUV) in CKD models; assay type: in vivo
Protocol: (§1) Adriamycin (from Wako Pure Chemical Industries, Ltd., 7.5 mg/kg) was administered to 13 Lewis rats (male, 8-week-old, available from Japan SLC, Inc.) via the tail vein, and urinary protein was measured in accordance with the Bradford method on day 13 after the administration, for 11 cases excluding two dead cases. Of these, four cases having a high urinary protein level were selected as CKD model animals, and used in the below-described examples on day 14 after the administration of adriamycin.
(§2) ^18F-HIC101 (radiochemical purity: 84.2%) was administered to the four CKD models prepared in Example 1 at 18.6±0.9 MBq/rat and to four healthy models at 17.0±2.7 MBq/rat, and after 80 minutes from the administration, static imaging was performed using a PET system for animals (eXplore Vista from GE). The collection conditions were 10 minutes at an energy window of 250 to 700 keV. The collected data were reconstructed and imaged using the 3D-OSEM method. From the images, the average of maximum values of SUV (standardized uptake value) of the kidneys (the region of interest (ROI) was set excluding the renal pelvis) and the average value of SUV of normal tissue in each slice were measured. Based on these values, the lesion-to-normal tissue ratio and the normal kidney-to-normal tissue ratio were used for evaluation. Student's t-test was used for statistical analysis of the measured results.
(§3) ^18F-FMISO (radiochemical purity: 96% or more) was administered to the four CKD models prepared in Example 1 at 18.7±1.1 MBq/rat and to four healthy models at 19.5±0.69 MBq/rat, and after 80 minutes from the administration, static imaging was performed using a PET system for animals (eXplore Vista from GE). One case each from each of the groups was placed under anesthesia again after the PET imaging, and imaging was performed after 180 minutes from the administration. The collection conditions were 10 minutes at an energy window of 250 to 700 keV, and the collected data were reconstructed and imaged using the 3D-OSEM method. From the images, the average of maximum values of SUV of the kidneys (the region of interest (ROI) was set excluding the renal pelvis) and the average value of SUV of normal tissue in each slice were measured. Based on these values, the lesion-to-normal tissue ratio and the normal kidney-to-normal tissue ratio were used for evaluation. Student's t-test was used for statistical analysis of the measured results.

[2] = test system: healthy models (physiological saline-treated Lewis rats); assay: Experiment of in vivo distribution in healthy models; conditions: healthy model; 100 minutes after administration
Protocol: (§4) As healthy models, four cases prepared by administering an equivalent amount of physiological saline instead of adriamycin were used.
(§5) After the completion of the PET imaging in Example 2, these rats were placed under anesthesia until 100 minutes after the administration, and were sacrificed by exsanguination. Then, the left and right kidneys, blood, brain, lung, heart, liver, spleen, stomach, small intestine, large intestine, adrenal gland, muscles, bones, fat around the kidneys, urine, and the remaining whole body were extracted, and weights and amounts of radioactivity were measured. Student's t-test was used for statistical analysis of the results.
as §5, with “Three cases from each of” for “After”, “groups that underwent” for “completion of”, “imaging after 80 minutes from the administration” for “imaging”, “5, as well as one case from each of the groups that had not undergone PET imaging,” for “2, these rats”

[3] = test system: CKD model animals (adriamycin-treated Lewis rats); assay: Experiment of in vivo distribution in CKD models; conditions: 100 minutes after administration
Protocol: as §1, §5
as §5, with “Three cases from each of” for “After”, “groups that underwent” for “completion of”, “imaging after 80 minutes from the administration” for “imaging”, “5, as well as one case from each of the groups that had not undergone PET imaging,” for “2, these rats”

[4] = test system: healthy models (physiological saline-treated Lewis rats), kidneys excluding the renal pelvis; assay: PET imaging (static, SUV) in healthy models; assay type: in vivo
Protocol: as §4, §2, §3

[5] = CKD model group, PET after 80 min from administration
[6] = CKD model group, PET after 80 min from administration, ROI excluding renal pelvis
[7] = healthy model group, PET after 80 min from administration
[8] = healthy model group, PET after 80 min from administration, ROI excluding renal pelvis
[9] = CKD model, one case, PET after 180 min from administration
[10] = healthy model, one case, PET after 180 min from administration

SMILES: O=[N+]([O-])c1nccn1CC(CO)(CO)C[18F] [^18F-HIC101, 2-[^18F]fluoromethyl-2-((2-nitro-1H-imidazol-1-yl)methyl)-1,3-propanediol]
- Normal Tissue SUV Average Value [1, 5]: 0.46 ± 0.04^$
- Renal Tissue (Lesion or Normal)-to-Normal Tissue Ratio, Left [1, 5]: 11.59 ± 1.88
- Renal Tissue (Lesion or Normal)-to-Normal Tissue Ratio, Right [1, 5]: 11.33 ± 1.57
- Renal Tissue SUV Maximum Value, Left [1, 5]: 5.25 ± 0.55
- Renal Tissue SUV Maximum Value, Right [1, 6]: 5.17 ± 0.70
- SUV maximum value of renal tissue in the example shown in FIG. 1 ([1]; MIP PET image of FIG. 1, after 80 minutes from administration): 10
- SUV maximum value of the CKD model examined for HIF-1α expression, (left) ([1]; individual CKD model of FIG. 3, (left)): 4.30
- SUV maximum value of the CKD model examined for HIF-1α expression, (right) ([1]; individual CKD model of FIG. 3, (right)): 5.12
- Comparison of uptake in the CKD models between the two agents ([1]; summary of Examples 2 to 6): higher than the uptake of ^18F-FMISO
- Uptake into renal tissue excluding the renal pelvis, CKD models versus healthy models ([1]; summary of Examples 2 to 6): uptaken into the renal tissue excluding the renal pelvis in the CKD models significantly, compared with the healthy models
- In vivo distribution (radioactivity uptake), Blood [2]: 0.08 ± 0.03
- In vivo distribution (radioactivity uptake), Heart [2]: 0.09 ± 0.03
- In vivo distribution (radioactivity uptake), Kidney (Left) [2]: 1.17 ± 0.61
- In vivo distribution (radioactivity uptake), Kidney (Right) [2]: 1.01 ± 0.24
- In vivo distribution (radioactivity uptake), Large Intestine [2]: 0.32 ± 0.44
- In vivo distribution (radioactivity uptake), Liver [2]: 0.23 ± 0.06
- In vivo distribution (radioactivity uptake), Lung [2]: 0.08 ± 0.03
- In vivo distribution (radioactivity uptake), Muscles [2]: 0.09 ± 0.03
- In vivo distribution (radioactivity uptake), Small Intestine [2]: 4.50 ± 0.70
- In vivo distribution (radioactivity), Urine [2]: 34.4 ± 23.3 % ID
- In vivo distribution (radioactivity uptake), Blood [3]: 0.16 ± 0.04
- In vivo distribution (radioactivity uptake), Heart [3]: 0.18 ± 0.04
- In vivo distribution (radioactivity uptake), Kidney (Left) [3]: 2.11 ± 0.44
- In vivo distribution (radioactivity uptake), Kidney (Right) [3]: 2.60 ± 0.58
- In vivo distribution (radioactivity uptake), Large Intestine [3]: 3.17 ± 0.08
- In vivo distribution (radioactivity uptake), Liver [3]: 0.34 ± 0.05
- In vivo distribution (radioactivity uptake), Lung [3]: 0.18 ± 0.05
- In vivo distribution (radioactivity uptake), Muscles [3]: 0.26 ± 0.04
- In vivo distribution (radioactivity uptake), Small Intestine [3]: 0.25 ± 0.82
- In vivo distribution (radioactivity), Urine [3]: 29.9 ± 14.9 % ID
- Normal Tissue SUV Average Value [4, 7]: 0.37 ± 0.06
- Renal Tissue (Lesion or Normal)-to-Normal Tissue Ratio, Left [4, 7]: 3.69 ± 0.37
- Renal Tissue (Lesion or Normal)-to-Normal Tissue Ratio, Right [4, 7]: 3.77 ± 0.66
- Renal Tissue SUV Maximum Value, Left [4, 7]: 1.37 ± 0.28
- Renal Tissue SUV Maximum Value, Right [4, 8]: 1.42 ± 0.43
- SUV maximum value of the healthy model examined for HIF-1α expression ([4]; individual healthy model of FIG. 3): 1.06

SMILES: O=[N+]([O-])c1nccn1CC(O)C[18F] (stereo not shown) [^18F-FMISO, 1-[^18F]fluoro-3-(2-nitro-1H-imidazol-1-yl)-2-propanol]
- Normal Tissue SUV Average Value [1, 5]: 0.94 ± 0.11
- Renal Tissue (Lesion or Normal)-to-Normal Tissue Ratio, Left [1, 5]: 2.11 ± 0.14
- Renal Tissue (Lesion or Normal)-to-Normal Tissue Ratio, Right [1, 5]: 2.22 ± 0.10
- Renal Tissue SUV Maximum Value, Left [1, 5]: 1.97 ± 0.15
- Renal Tissue SUV Maximum Value, Right [1, 6]: 2.08 ± 0.22
- Normal Tissue SUV Average Value [1, 9]: 0.87
- Renal Tissue (Lesion or Normal)-to-Normal Tissue Ratio, Left [1, 9]: 3.17
- Renal Tissue (Lesion or Normal)-to-Normal Tissue Ratio, Right [1, 9]: 2.87
- Renal Tissue SUV Maximum Value, Left [1, 9]: 2.77
- Renal Tissue SUV Maximum Value, Right [1, 9]: 2.51
- Uptake in renal cortex versus renal pelvis ([1]; PET images after 180 minutes compared with after 80 minutes from administration): a tendency toward a higher uptake in the renal cortex than in the renal pelvis
- Change of SUV maximum value (ROI analysis) ([1]; after 180 minutes versus after 80 minutes from administration): a tendency for the SUV maximum value to increase more than that after 80 minutes from the administration
- Uptake into renal tissue excluding the renal pelvis, CKD models versus healthy models ([1]; summary of Examples 2 to 6): uptaken into the renal tissue excluding the renal pelvis in the CKD models significantly, compared with the healthy models
- In vivo distribution (radioactivity uptake), Blood [2]: 0.30 ± 0.02
- In vivo distribution (radioactivity uptake), Heart [2]: 0.34 ± 0.02
- In vivo distribution (radioactivity uptake), Kidney (Left) [2]: 0.53 ± 0.03
- In vivo distribution (radioactivity uptake), Kidney (Right) [2]: 0.55 ± 0.03
- In vivo distribution (radioactivity uptake), Large Intestine [2]: 1.52 ± 0.15
- In vivo distribution (radioactivity uptake), Liver [2]: 0.50 ± 0.04
- In vivo distribution (radioactivity uptake), Lung [2]: 0.31 ± 0.02
- In vivo distribution (radioactivity uptake), Muscles [2]: 0.30 ± 0.02
- In vivo distribution (radioactivity uptake), Small Intestine [2]: 0.74 ± 0.11
- In vivo distribution (radioactivity), Urine [2]: 9.50 ± 1.75 % ID
- In vivo distribution (radioactivity uptake), Blood [3]: 0.44 ± 0.02
- In vivo distribution (radioactivity uptake), Heart [3]: 0.53 ± 0.01
- In vivo distribution (radioactivity uptake), Kidney (Left) [3]: 1.08 ± 0.28
- In vivo distribution (radioactivity uptake), Kidney (Right) [3]: 1.09 ± 0.29
- In vivo distribution (radioactivity uptake), Large Intestine [3]: 1.14 ± 0.10
- In vivo distribution (radioactivity uptake), Liver [3]: 0.89 ± 0.28
- In vivo distribution (radioactivity uptake), Lung [3]: 0.48 ± 0.02
- In vivo distribution (radioactivity uptake), Muscles [3]: 0.47 ± 0.02
- In vivo distribution (radioactivity uptake), Small Intestine [3]: 1.54 ± 0.67
- In vivo distribution (radioactivity), Urine [3]: 2.60 ± 2.16 % ID
- Normal Tissue SUV Average Value [4, 7]: 0.89 ± 0.03
- Renal Tissue (Lesion or Normal)-to-Normal Tissue Ratio, Left [4, 7]: 1.95 ± 0.05
- Renal Tissue (Lesion or Normal)-to-Normal Tissue Ratio, Right [4, 7]: 1.89 ± 0.13
- Renal Tissue SUV Maximum Value, Left [4, 7]: 1.74 ± 0.08
- Renal Tissue SUV Maximum Value, Right [4, 8]: 1.68 ± 0.14
- Normal Tissue SUV Average Value [4, 10]: 0.72
- Renal Tissue (Lesion or Normal)-to-Normal Tissue Ratio, Left [4, 10]: 2.31
- Renal Tissue (Lesion or Normal)-to-Normal Tissue Ratio, Right [4, 10]: 2.26
- Renal Tissue SUV Maximum Value, Left [4, 10]: 1.67
- Renal Tissue SUV Maximum Value, Right [4, 10]: 1.63
